Values of other authors, collected in US6403571B2, “Combination therapy for reducing the risks associated with cardiovascular disease” (Merck & Co., Inc., priority 1996, dated 2002).
Where a name gives a salt, the structure may show the parent alone. Where a SMILES comes first, the peptide text is derived from it. Bridges are numbered along the chain shown (N, C = ends). [ ]: non-standard residue; d: D form. hArg = N=C(N)NCCCC[C@H](N)C(=O)O; Mpa = O=C(O)CCS

Experiments:
GP IIb/IIIa [1] = biological target: T1, GP IIb/IIIa (Homo sapiens, UniProt P05106+P08514)
GP IIb/IIIa [2] = biological target: T1, GP IIb/IIIa; details: for selectivity for GP IIb/IIIa: administered intravenously
αvβ3 = αvβ3 (Homo sapiens, UniProt P05106+P06756)
[3] = prodrug, requires biotransformation in vivo to its active form

Sequence of αvβ3 (P06756 31-889 limits assumed): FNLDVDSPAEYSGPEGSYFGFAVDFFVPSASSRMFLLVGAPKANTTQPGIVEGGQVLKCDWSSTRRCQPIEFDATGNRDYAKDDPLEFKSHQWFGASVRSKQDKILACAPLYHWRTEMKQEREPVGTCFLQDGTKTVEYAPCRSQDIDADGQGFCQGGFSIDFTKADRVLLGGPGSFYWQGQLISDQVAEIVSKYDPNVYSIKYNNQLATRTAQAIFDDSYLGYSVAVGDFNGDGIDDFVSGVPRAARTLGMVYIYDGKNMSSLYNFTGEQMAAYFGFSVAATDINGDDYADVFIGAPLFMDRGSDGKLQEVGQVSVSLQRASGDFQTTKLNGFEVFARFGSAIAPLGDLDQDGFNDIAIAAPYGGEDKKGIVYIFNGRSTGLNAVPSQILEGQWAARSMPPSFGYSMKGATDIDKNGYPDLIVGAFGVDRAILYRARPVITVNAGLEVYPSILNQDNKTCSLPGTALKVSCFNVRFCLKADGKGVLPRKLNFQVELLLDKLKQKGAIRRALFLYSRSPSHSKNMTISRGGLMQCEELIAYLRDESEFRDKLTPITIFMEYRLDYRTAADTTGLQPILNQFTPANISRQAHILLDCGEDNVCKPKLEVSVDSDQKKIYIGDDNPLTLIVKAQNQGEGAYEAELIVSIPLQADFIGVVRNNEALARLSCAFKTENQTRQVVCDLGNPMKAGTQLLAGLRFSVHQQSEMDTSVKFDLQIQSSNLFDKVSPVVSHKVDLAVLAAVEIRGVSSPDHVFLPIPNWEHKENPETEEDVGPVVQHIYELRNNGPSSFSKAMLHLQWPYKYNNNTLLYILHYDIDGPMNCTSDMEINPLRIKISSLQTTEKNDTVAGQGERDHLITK
Sequence of αvβ3 (P06756 891-1048 partner limits assumed): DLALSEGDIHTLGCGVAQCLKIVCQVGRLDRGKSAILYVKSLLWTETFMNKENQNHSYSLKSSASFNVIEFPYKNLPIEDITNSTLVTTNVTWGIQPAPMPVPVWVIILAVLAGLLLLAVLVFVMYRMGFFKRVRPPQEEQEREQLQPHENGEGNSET
Sequence of αvβ3 (P05106 27-788): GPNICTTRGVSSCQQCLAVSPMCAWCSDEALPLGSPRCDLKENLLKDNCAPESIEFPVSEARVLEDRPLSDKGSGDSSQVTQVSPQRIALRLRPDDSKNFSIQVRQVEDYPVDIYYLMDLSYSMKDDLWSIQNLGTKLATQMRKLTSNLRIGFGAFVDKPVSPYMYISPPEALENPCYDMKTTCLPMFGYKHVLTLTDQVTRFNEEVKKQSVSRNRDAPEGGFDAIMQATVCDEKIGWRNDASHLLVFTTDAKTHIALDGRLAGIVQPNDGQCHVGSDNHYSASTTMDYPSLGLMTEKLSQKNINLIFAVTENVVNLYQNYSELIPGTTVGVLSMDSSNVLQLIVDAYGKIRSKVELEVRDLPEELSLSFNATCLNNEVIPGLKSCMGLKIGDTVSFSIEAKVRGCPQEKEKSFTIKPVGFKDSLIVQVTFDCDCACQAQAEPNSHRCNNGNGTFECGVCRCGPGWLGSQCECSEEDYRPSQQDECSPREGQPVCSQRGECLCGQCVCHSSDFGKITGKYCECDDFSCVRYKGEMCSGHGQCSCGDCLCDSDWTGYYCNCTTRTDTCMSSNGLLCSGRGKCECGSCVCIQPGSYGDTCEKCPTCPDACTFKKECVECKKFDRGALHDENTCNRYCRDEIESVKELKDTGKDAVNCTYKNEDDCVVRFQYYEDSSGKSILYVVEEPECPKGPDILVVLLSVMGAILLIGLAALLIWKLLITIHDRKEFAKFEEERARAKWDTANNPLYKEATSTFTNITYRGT

## 7E3: monoclonal antibody which blocks the GP IIb/IIIa receptor and the αvβ3 receptor [Compound 7E3]
GP IIb/IIIa [1]; 7E3 added to heparin and aspirin, increasing from 3%
  need for transfusion: 6%
GP IIb/IIIa [1]; 7E3 added to heparin and aspirin, increasing from 7%
  incidence of patients with decreased hematocrit: 15%
GP IIb/IIIa [1]; 7E3 added to standard regime of heparin and aspirin, decrease from 12.8% without blockade
  combined endpoints of death, non-fatal myocardial infarction (MI) and need for urgent revascularization: 8.3%

## CCCCS(=O)(=O)N[C@@H](Cc1ccc(OCCCCC2CCNCC2)cc1)C(=O)O [MK-383, 2-S-(n-Butylsulfonylamino)-3[4-piperidin-4-yl)butyloxyphenyl]propionic acid hydrochloride]
GP IIb/IIIa [2]
  selectivity for GP IIb/IIIa: selective

## N=C(N)c1ccc(C(=O)N[C@@H](Cc2ccc(O)cc2)C(=O)N2CCC(OCC(=O)O)CC2)cc1 [Ro 44-9883]
GP IIb/IIIa [2]
  selectivity for GP IIb/IIIa: selective

## N=C(N)NCCCC[C@@H]1NC(=O)CCSSC[C@@H](C(N)=O)NC(=O)[C@@H]2CCCN2C(=O)[C@H](Cc2c[nH]c3ccccc23)NC(=O)[C@H](CC(=O)O)NC(=O)CNC1=O [Integrelin] ([Mpa][hArg]GDWPC-NH2; disulfide 1-7)
αvβ3
  effect on ligand binding to αvβ3: very little effect
GP IIb/IIIa [2]
  effect on ligand binding to GP IIb/IIIa: inhibits ligand binding

## C#C[C@H](CC(=O)OCC)NC(=O)CCC(=O)Nc1ccc(C(=N)N)cc1 [SC54684, ethyl 3-[[4-[[4-(aminoiminomethyl)phenyl]amino]-1,4-dioxobutyl]amino]-4-pentynoate]
[3]
  oral bioavailability: high oral bioavailability
